Patent publication US20240252594A1, “COMBINATION THERAPY FOR NEURODEGENERATIVE DISEASES” (ALETA NEUROSCIENCE, LLC, priority 2021, published 2024)

Assays:
[1] = system: CXCL1/GROα mediated neuroinflammation in microglial cells; test: LPS/ATP-induced neuroinflammation in microglia: CXCL1/GROα secretion (Luminex); assay type: cell-based, human; settings: for CXCL1/GROα in supernatant, Mean ± S.D. / CXCL1/GROα in supernatant, Replicate 1 / CXCL1/GROα in supernatant, Replicate 2 / CXCL1/GROα in supernatant, Replicate 3: LPS (100 ng/mL) + ATP (5 mM), six hours after LPS
Text: (§1) In addition to the studies discussed above assessing activity of combinations of drugs on MPP+-induced neurodegeneration toxicity on human dopaminergic neurons as well as on a human iPSC cell line harboring a triplication mutation in alpha-synuclein gene, and measuring neuronal growth, neurite branching and neurofilament heavy chain, we also assessed combinations of drugs in reducing lipopolysaccharide (LPS, from E. coli)-induced neuroinflammation in human microglia cells.
(§2) Lipopolysaccharides are important outer membrane components of gram-negative bacteria such as E. coli and Salmonella. They are large amphipathic glycoconjugates that typically consist of a lipid domain (hydrophobic) attached to a core oligosaccharide and a distal polysaccharide. LPS binds to Toll-like receptor 4 (TLR4) and activates microglia(98) which in turn increases secretion of pro-inflammatory cytokines such as interleukin-6 (IL-6), tumor necrosis factor-α (TNF-α), and CXCL1/GROα.
(§3) Microglia cells were obtained from an iCell® Microglia kit, 01279 (Catalogue N^o R1131) from FUJIFILM Cellular Dynamics. We followed the manufacturer's protocol for activation of the microglial cells with LPS/ATP to subsequently measure the effect of the study drugs on pro-inflammatory cytokines IL-6, TNF-α and CXCL1/GROα.
(§4) All cell culture procedures were performed in aseptic conditions, under a laminar flow hood. Microglia were thawed and cultured following the provider's instructions. The microglia were plated at 50,000 cells per well of a Corning Primaria 96 well plate (Ref N^o 353872) in 100 μL of growth medium. Cells were incubated at 37° C./5% CO2 in a humidified cell culture incubator.
(§5) Three days after cell plating, the test or reference substances (25 μL of solutions at 5×) were applied 1 hour before LPS and ATP stimulation.
(§6) One hour later, 12.5 μL of test or reference substances were added again at 2× concentrated followed by 12.5 μL of LPS at 12× concentration. Fifty microliters of ATP were introduced at 4× concentration, 5 h 30 min after incubation with LPS.
(§7) Six hours after LPS incubation, the supernatant of each well was collected and centrifugated at 1000 g for 10 minutes to remove the cells and debris.
(§8) Fifty microliters of supernatant from NT and LPS+ATP-treated wells were used to determine cytokine secretion (IL-6, TNF-α, CXCL1/GROα) by Luminex platform according to the provider's instructions. Samples were diluted prior to the assay to fit within the standard range if needed. Three wells were tested per each condition (Table 11). Cytokines levels in the supernatant were expressed in pg/mL. The data was analyzed using a One-Way ANOVA followed by Bonferroni test.

[2] = system: TNF-α mediated neuroinflammation in microglial cells; test: LPS/ATP-induced neuroinflammation in microglia: TNF-α secretion (Luminex); assay type: cell-based, human; settings: for TNF-α in supernatant, Mean ± S.D. / TNF-α in supernatant, Replicate 1 / TNF-α in supernatant, Replicate 2 / TNF-α in supernatant, Replicate 3: LPS (100 ng/mL) + ATP (5 mM), six hours after LPS
Text: as §1, §2, §3, §4, §5, §6, §7, §8

[3] = system: IL-1B; test: LPS/ATP-induced neuroinflammation in microglia: IL-1B; assay type: cell-based, human; settings: compared with […] distilled water in presence of LPS and ATP
[4] = system: IL-6 mediated inflammation in microglial cells; test: LPS/ATP-induced neuroinflammation in microglia: IL-6 secretion (Luminex); assay type: cell-based, human; settings: for IL-6 in supernatant, Mean ± S.D. / IL-6 in supernatant, Replicate 1 / IL-6 in supernatant, Replicate 2 / IL-6 in supernatant, Replicate 3: LPS (100 ng/mL) + ATP (5 mM), six hours after LPS
Text: as §1, §2, §3, §4, §5, §6, §7, §8

[5] = system: iPSC-derived dopaminergic (DA) neurons harboring triplication of the α-synuclein locus; test: α-Synuclein triplication cell line: neurofilament heavy chain signal intensity; assay type: cell-based, human; settings: normalized to Hoechst signal; three months treatment; PBA 500 μM, TUDCA 50 μM, EXD 100 nM
Experimental: We used 12 replicas for each experimental condition and 16 replicas for control (untreated cells). […] Cells were washed three times with warm phosphate buffered saline (PBS) and imaged immediately at 20× magnification on an imageXpress Micro confocal at 37° C. and 5% CO2.
Following imaging, cells were immediately fixed with 4% paraformaldehyde for 30 minutes at room temperature, washed three times with PBS, permeabilized with 0.2% Triton X-100 for 30 minutes, blocked with Odyssey Blocking Buffer for 60 minutes, and incubated overnight at 4° C. with primary antibodies, neurofilament (1:1000, Synaptic Systems 171 002) and LB509 (1:100, Abcam ab27766). Cells were washed 3× with 0.1% Tween-20 in PBS and incubated with Alexa Fluor Goat Anti-Rabbit 790 (1:1000) and Goat Anti-Mouse 647 (1:1000) for 1 hour at RT, before washing 3× with 0.1% Tween-20 in PBS and imaging with Sapphire Biomolecular Imager. Neurofilament heavy chain signal intensity was normalized to fixed Hoechst signal measured with Spectra Gemini plate reader (ex=350 nm, em=461 nm), using Hoechst 33342 nucleic acid stain from Invitrogen according to the manufacturer's instructions. Neurofilaments (NF) are located mostly in axons and indicate roughly the content of neurites. If neurodegeneration is halted or reversed, NF signal increases because it correlates with the number and/or length of neurites in the well.

[6] = system: human dopaminergic neurons (iCell DopaNeurons); test: MPP+-induced neurotoxicity: neurite outgrowth (neurite length, branch points) on iCell DopaNeurons; assay type: cell-based; settings: for Neurite length, Mean: Table 7.1, plate 1
Text: MPP+(1-methyl-4-phenylpyridinium) is a known neurotoxin which acts by interfering with oxidative phosphorylation in mitochondria by inhibiting complex I, a protein in the membrane of mitochondria in dopaminergic neurons in the substantia nigra.(94) The inhibition of mitochondrial function leads to the depletion of ATP and eventual cell death. MPP+ ultimately causes Parkinsonism in primates by killing certain dopamine-producing neurons in the substantia nigra.
iCell DOPA neurons are neural floor plate-derived midbrain dopaminergic neurons generated from human induced pluripotent stem cells (iPSCs). Dopaminergic neurons, specifically those located in the floor plate-derived midbrain are implicated in neurological disorders such as Parkinson's disease, MSA and DLBD among others. […] The iCellDopa neurons were supplied from FUJIFILM Cellular Dynamics.
(§9) Procedure. iCell DOPA neurons were thawed and cultured following the provider's instructions in Brainphys medium+provided supplements+1% N2 supplement (Stemcell Technologies)+penicillin/streptomycin+Laminin. They were plated at 20000 cells per well of a 384 well plate (pre-coated with poly-D-lysine and Laminin) in 70 μL of growth medium. Cells were incubated at 37° ° C./5% CO2 in a humidified cell culture incubator. Half of the culture medium was changed twice a week.
(§10) MPP+-induced neurotoxicity: 24 hours after neuronal plating, half of the medium was removed and the test compounds were applied with MPP+ treatment, both concentrated at 4×, were added to the wells. For each well, five aliquots were added, corresponding columns A-E in Table 3. In each row, either the compound indicated dissolved in its vehicle noted in Table 2 was added, or only a vehicle was added as indicated. Column E is an indicator of whether MPP+ was added. If not, only the medium was added.
(§11) For the evaluation of conditions 8, 10,12, 22, 24, Neurite outgrowth was followed for subsequent 48 hours using an Incucyte Zoom platform with one phase contrast image every 4 hours, using a 20× objective. After 48 hours, the medium containing test compounds and MPP+ was removed and replaced by fresh medium containing a fluorescent cytolysis marker (red fluorescence) and a live cell marker (green fluorescence). For the evaluation of conditions 10, 12, 24, 38, 40, 51-53, Neurite outgrowth was followed similarly for subsequent 72 hours after MPP+ was added.
Assay endpoints and data analysis. Phase contrast images were analyzed at each time point to determine the neurite length and number of branch points per mm^2. Kinetic data was plotted and kinetics were normalized by subtracting the value of the first data point (at time of treatment), allowing to measure changes in neurite outgrowth only from the onset of the treatment, starting at zero. Area Under Curve (AUC) of kinetic data was obtained and used for plotting compound's effects and perform statistical analyzes.

[7] = system: human dopaminergic neurons (iCell DopaNeurons); test: MPP+-induced neurotoxicity: cytolysis of iCell DopaNeurons; assay type: cell-based; settings: with MPP+ 100 μM
Experimental: Three different measurements were made in the experiments. Neurite length in mm was measured, which is a measure of increase in dendril length of neurons. […] Secondly, neurite branching was measured. […] Thirdly, cytolysis of the cells was measured. […] Experimental conditions were measured relative to the results of healthy cells in the studies.
as §9, §10, §11
Data was normalized to control conditions as there is basal cytolysis in the cell culture after thawing.

[8] = system: G93A transgenic ALS mice; settings: mouse, in vivo; cited from earlier work
[9] = system: HD patients; settings: up to 15 g/day; cited from earlier work
[10] = system: Alzheimer's disease; settings: cited from earlier work
[11] = compared with […] distilled water in presence of LPS and ATP
[12] = Table 7.2, plate 1, with MPP+ 100 μM, 72 hours

SMILES	CXCL1/GROα in supernatant, Mean ± S.D. [1] [pg/mL]	CXCL1/GROα in supernatant, Replicate 1 [1] [pg/mL]	CXCL1/GROα in supernatant, Replicate 2 [1] [pg/mL]	CXCL1/GROα in supernatant, Replicate 3 [1] [pg/mL]	TNF-α in supernatant, Mean ± S.D. [2] [pg/mL]	TNF-α in supernatant, Replicate 1 [2] [pg/mL]	TNF-α in supernatant, Replicate 2 [2] [pg/mL]	TNF-α in supernatant, Replicate 3 [2] [pg/mL]	Effect on TNF-α concentration (in words) [2, 11]	Effect on IL-1B concentration (in words) [3]	IL-6 in supernatant, Mean ± S.D. [4] [pg/mL]	IL-6 in supernatant, Replicate 1 [4] [pg/mL]	IL-6 in supernatant, Replicate 2 [4] [pg/mL]	IL-6 in supernatant, Replicate 3 [4] [pg/mL]	Effect on IL-6 concentration (in words) [4, 11]	Neurite length, Mean ([6]; with MPP+ 100 μM, 72 hours) [mm/mm^2]	Neurite Branching, Mean ± S.D. [6, 12] [per mm^2]	Cytolysis, Mean ± S.D. ([7]; Table 9.1, plate 1) [%]	further results
CC(C)(O)c1coc(S(=O)(=O)NC(=O)Nc2c3c(cc4c2CCC4)CCC3)c1 [MCC950]	469.39 ± 82.91	375.70	499.15	533.31	30.95 ± 2.25	29.44	29.87	33.53	significantly decreased	significantly decreased	256.48 ± 40.04	253.54	297.91	218.00	significantly decreased				
O=C([O-])CCCc1ccccc1.[Na+] [PBA, Sodium 4-phenylbutyrate]	495.79 ± 122.99	627.29	383.60	476.49	33.46 ± 1.75	32.67	35.47	32.24			355.23 ± 45.97	396.23	363.94	305.53		1681.1	46742.8 ± 7107.5	72.06 ± 1.77	Decrease of TNF-α concentration [2, 11]: 44%; Neurofilament Heavy Chain signal intensity, mean [5]: 1.088; Increase of number of branch points compared with MPP+ alone (control/MPP+) ([6]; AUC, MPP+ 100 μM): 89%; Protective effect on neurite length and branching (in words) ([6]; MPP+ 100 μM): much less protective effect than combination 8; Neurite length - Baseline-corrected AUC (0-72 h), Mean ([6]; Table 5.1, plate 1, with MPP+ 100 μM): 853.7 mm/mm^2; Number of branch points per mm^2 - Baseline-corrected AUC (0-72 h), Mean ([6]; Table 5.2, plate 1, with MPP+ 100 μM): 41712.8 per mm^2; Survival [8]: significantly extended survival; Decrease of IL-6 concentration [4, 11]: 49%; Safety and tolerability [9]: safe and well-tolerated
CC(C)[C@H](NC(=O)c1ccc2ccccc2n1)C(=O)N[C@@H](CC(=O)O)C(=O)COc1c(F)cccc1F [PCI/MPP+, Q-VD-OPh]																1301.0	38456.3 ± 11570.7	65.56 ± 1.89	Neurite length, Mean ± S.D. ([6]; Table 8.1, plate 2, with MPP+ 100 μM, 72 hours): 1430.1 ± 321.7 mm/mm^2; Neurite Branching, Mean ± S.D. ([6]; Table 8.2, plate 2, with MPP+ 100 μM, 72 hours): 52610.1 ± 16660.1 per mm^2; Cytolysis, Mean ± S.D. ([7]; Table 9.2, plate 2): 67.93 ± 3.52%
CCOC(=O)C1=CCCC[C@H]1S(=O)(=O)Nc1ccc(F)cc1Cl [TAK-242]	37.76 ± 6.05	35.76	32.96	44.55	5.63 ± 0.00	<5.63	<5.63	<5.63	significantly decreased	significantly decreased	10.47 ± 0.00	<10.47	<10.47	<10.47	significantly decreased				Effect on GROα concentration (in words) [1, 11]: significantly decreased
Cc1cn(-c2cc(NC(=O)c3ccc(C)c(Nc4nccc(-c5cccnc5)n4)c3)cc(C(F)(F)F)c2)cn1 [nilotinib, Nilotinib]																			Hippocampal volume loss attenuated ([10]; at 12 months): −27%; Safety ([10]; in vivo): safe
